This passage reports MIC and Ratio results from ChEMBL document CHEMBL5344406, “1,2,3-Triazole-containing hybrids with potential antibacterial activity against ESKAPE pathogens” (2022).

What all share (assay type): functional
Experiment [1] relates to Escherichia coli. In words: Antibacterial activity against Escherichia coli assessed as bacterial growth inhibition.
The test system of experiment [2] is Staphylococcus aureus. In words: Antibacterial activity against methicillin-sensitive Staphylococcus aureus assessed as bacterial growth inhibition.
Experiment [3] deals with Staphylococcus epidermidis. In words: Antibacterial activity against methicillin-sensitive Staphylococcus epidermidis assessed as bacterial growth inhibition.
A further experiment relates to Enterococcus faecalis. In words: Antibacterial activity against Enterococcus faecalis assessed as bacterial growth inhibition.
The test system of another experiment is Enterococcus faecium. In words: Antibacterial activity against Enterococcus faecium assessed as bacterial growth inhibition.
Experiment [4] concerns Pseudomonas aeruginosa. The experiment is described as follows: Antibacterial activity against Pseudomonas aeruginosa assessed as bacterial growth inhibition.
In a further experiment the test system is Enterobacter cloacae. The experiment is described as follows: Antibacterial activity against Enterobacter cloacae assessed as bacterial growth inhibition.
A further experiment deals with Klebsiella aerogenes. In words: Antibacterial activity against Enterobacter aerogenes assessed as bacterial growth inhibition.
Another experiment has as its system Providencia rettgeri. The experiment is described as follows: Antibacterial activity against Providencia rettgeri assessed as bacterial growth inhibition.
Another experiment relates to Proteus vulgaris. The experiment is described as follows: Antibacterial activity against Proteus vulgaris assessed as bacterial growth inhibition.
For experiment [5], the system named is Klebsiella pneumoniae. In words: Antibacterial activity against Klebsiella pneumoniae assessed as bacterial growth inhibition.
In experiment [6] the test system is Escherichia coli. The experiment is described as follows: Antibacterial activity against Escherichia coli producing extended spectrum beta-lactamases assessed as bacterial growth inhibition.
Experiment [7] deals with Klebsiella pneumoniae. In words: Antibacterial activity against Klebsiella pneumoniae producing extended spectrum beta-lactamases assessed as bacterial growth inhibition.
In experiment [8] the test system is Staphylococcus aureus. The experiment is described as follows: Antibacterial activity against erythromycin-susceptible Staphylococcus aureus ATCC 25923 assessed as bacterial growth inhibition by standard dilution assay.
Experiment [9] relates to Staphylococcus aureus. In words: Antibacterial activity against methicillin-resistant Staphylococcus aureus ATCC 43300 assessed as bacterial growth inhibition by standard dilution assay.
In experiment [10] the test system is Staphylococcus aureus. In words: Antibacterial activity against erythromycin-resistant Staphylococcus aureus clinical isolate assessed as bacterial growth inhibition by standard dilution assay.
The test system of experiment [11] is Staphylococcus aureus. In words: Antibacterial activity against penicillin-resistant Staphylococcus aureus ATCC 31007 assessed as bacterial growth inhibition by standard dilution assay.
For experiment [12], the system named is Klebsiella pneumoniae. In words: Antibacterial activity against erythromycin-resistant Klebsiella pneumoniae ATCC 700603 assessed as bacterial growth inhibition by standard dilution assay.
Experiment [13] concerns Staphylococcus aureus. The experiment is described as follows: Potency index, ratio of Azithromycin MIC to test compound MIC for antibacterial activity against erythromycin-susceptible Staphylococcus aureus ATCC 25923 assessed as bacterial growth inhibition by standard dilution assay.
For experiment [14], the system named is Staphylococcus aureus. The experiment is described as follows: Potency index, ratio of Clarithromycin MIC to test compound MIC for antibacterial activity against erythromycin-susceptible Staphylococcus aureus ATCC 25923 assessed as bacterial growth inhibition by standard dilution assay.
Experiment [15] relates to Staphylococcus aureus. The experiment is described as follows: Antibacterial activity against Staphylococcus aureus clinical isolate assessed as bacterial growth inhibition by disk diffusion method. On the technique in general: In agar diffusion tests the substance spreads into inoculated agar from a disc or well.
The subject of experiment [16] is Escherichia coli. The experiment is described as follows: Antibacterial activity against Escherichia coli clinical isolate assessed as bacterial growth inhibition by disk diffusion method.
Experiment [17] has as its system Klebsiella pneumoniae. The experiment is described as follows: Antibacterial activity against Klebsiella pneumoniae clinical isolate assessed as bacterial growth inhibition by disk diffusion method.
Another experiment relates to Pseudomonas putida. The experiment is described as follows: Antibacterial activity against Pseudomonas putida clinical isolate assessed as bacterial growth inhibition by disk diffusion method.
The subject of a further experiment is Serratia marcescens. The experiment is described as follows: Antibacterial activity against Serratia marcescens clinical isolate assessed as bacterial growth inhibition by disk diffusion method.
The test system of experiment [18] is Escherichia coli. The experiment is described as follows: Antibacterial activity against multidrug-resistant Escherichia coli assessed as bacterial growth inhibition incubated for 24 hrs by […] method.
The test system of experiment [19] is Staphylococcus aureus. In words: Antibacterial activity against Staphylococcus aureus clinical isolate assessed as bacterial growth inhibition incubated for 24 hrs by disk diffusion method.
Experiment [20] deals with Escherichia coli. The experiment is described as follows: Antibacterial activity against Escherichia coli clinical isolate assessed as bacterial growth inhibition incubated for 24 hrs by disk diffusion method.
Experiment [21] has as its system Staphylococcus aureus. The experiment is described as follows: Antibacterial activity against Staphylococcus aureus assessed as bacterial growth inhibition by broth microdilution method.
Experiment [22] deals with Escherichia coli. The experiment is described as follows: Antibacterial activity against Escherichia coli assessed as bacterial growth inhibition by broth microdilution method.
The test system of experiment [23] is Klebsiella pneumoniae. In words: Antibacterial activity against Klebsiella pneumoniae assessed as bacterial growth inhibition by broth microdilution method. In general terms: Broth dilution looks for growth in wells or tubes with falling amounts of substance.
Experiment [24] has as its system Staphylococcus aureus. In words: Antibacterial activity against Staphylococcus aureus ATCC 43300 assessed as bacterial growth inhibition measured for 5 to 20 mins by broth dilution method. To be noted: time 5-20 min.
Experiment [25] has as its system Pseudomonas aeruginosa. In words: Antibacterial activity against Pseudomonas aeruginosa ATCC 10145 assessed as bacterial growth inhibition measured for 5 to 20 mins by broth dilution method. Conditions: time 5-20 min.

Converted amounts (≈) assume the structure as drawn. Where only a bound is given, the exact number is not on record here.

As a reminder, the MIC is the lowest concentration that inhibits growth of the organism. Consider `CO/N=C1\C(=O)N(Cc2cn(CC(=O)N3CCC[C@@H]4CN(c5c(F)cc6c(=O)c(C(=O)O)cn(C7CC7)c6c5OC)C[C@@H]43)nn2)c2ccc(C)cc21`, for which the MIC (in the experiment with Escherichia coli [1]; in the experiment on Staphylococcus aureus [2]; in [3]; in the experiment with Enterococcus faecalis; with Enterococcus faecium; with Pseudomonas aeruginosa [4]) was not above 0.03 µg/mL in each case. Besides, the MIC in the experiment with Enterobacter cloacae, in the experiment on Klebsiella aerogenes, in the experiment on Providencia rettgeri, with Proteus vulgaris, with Klebsiella pneumoniae [5] and with Escherichia coli [6] was not above 0.03 µg/mL each time. For the same compound, the minimum inhibitory concentration (MIC) in the experiment on Klebsiella pneumoniae [7] was not above 0.03 µg/mL.

For the compound `CCCCc1ccc(-c2cn(CC(=O)NNC(=O)O[C@H]3C[C@H](C)[C@@H](O[C@@H]4[C@H](C)[C@@H](O[C@H]5O[C@@H](C)C[C@@H](N(C)C)[C@@H]5O)[C@@](C)(O)C[C@@H](C)CN(C)[C@H](C)[C@H]5OC(=O)O[C@]5(C)[C@H](CC)OC(=O)[C@@H]4C)C[C@@]3(C)OC)nn2)cc1`, the MIC with Staphylococcus aureus [8] is 2 µg/mL (≈ 1.87 µM); in the experiment on Staphylococcus aureus [9], 2 µg/mL (≈ 1.87 µM); with Staphylococcus aureus [10], not below 128 µg/mL; in the experiment with Staphylococcus aureus [11], 2 µg/mL (≈ 1.87 µM); in the experiment with Klebsiella pneumoniae [12], not below 128 µg/mL. The Ratio in the experiment with Staphylococcus aureus [13] and with Staphylococcus aureus [14] was more than 32 throughout.

For the compound `Cc1ccc(NC(=O)Cn2cc(Cn3c4ccccc4c(=O)c4cc(C)ccc43)nn2)cc1`, the MIC in the experiment with Staphylococcus aureus [15], in the experiment on Escherichia coli [16], in the experiment on Klebsiella pneumoniae [17], with Pseudomonas putida and in the experiment on Serratia marcescens was 12.3 µg/mL (≈ 28.1 µM) throughout.

For the compound `c1ccc(-n2cc(COc3ccc(-c4nc5ccccc5s4)cc3)nn2)cc1`, the minimal inhibitory concentration (MIC) with Escherichia coli [18] came out at 7.99 µg/mL (≈ 20.8 µM).

Regarding `Cc1ccc2c(c1)c(=O)c1ccccc1n2Cc1cn(-c2ccccc2C)nn1`, the MIC with Staphylococcus aureus [19] and in the experiment on Escherichia coli [20] was 10.1 µg/mL (≈ 26.5 µM) each time.

For the compound `COC(=O)[C@H](Cc1cn(Cc2cn(-c3ccccc3[N+](=O)[O-])nn2)c2ccccc12)NC(=O)[C@@H](C)c1ccc2cc(OC)ccc2c1`, the minimum inhibitory concentration (MIC) in the experiment with Staphylococcus aureus [21], in the experiment with Escherichia coli [22] and in the experiment on Klebsiella pneumoniae [23] was 25 µg/mL (≈ 39.5 µM) in each case.

As for `COCCOCCOCCOC(=O)c1cccc(-n2cc(CO[C@@H]3O[C@H](COC(C)=O)[C@H](OC(C)=O)[C@H](OC(C)=O)[C@H]3OC(C)=O)nn2)c1`, the minimum inhibitory concentration (MIC) with Staphylococcus aureus [24] and in the experiment with Pseudomonas aeruginosa [25] was 5 µg/mL (≈ 7.19 µM) each time.

On to `CCO/N=C1\C(=O)N(Cc2cn(CC(=O)N3CCC[C@@H]4CN(c5c(F)cc6c(=O)c(C(=O)O)cn(C7CC7)c6c5OC)C[C@@H]43)nn2)c2ccccc21`, for which the MIC (in the experiment with Escherichia coli [1]; in the experiment with Staphylococcus aureus [2]; in experiment [3]; in the experiment on Enterococcus faecalis; in the experiment on Enterococcus faecium; in the experiment with Pseudomonas aeruginosa [4]) was not above 0.03 µg/mL in each case. In addition, the MIC in the experiment with Enterobacter cloacae, in the experiment on Klebsiella aerogenes, in the experiment with Providencia rettgeri, with Proteus vulgaris, with Klebsiella pneumoniae [5] and in the experiment on Escherichia coli [6] was not above 0.03 µg/mL in each case. Besides, the MIC in the experiment with Klebsiella pneumoniae [7] was not above 0.03 µg/mL.

With `CCCCCc1ccc(-c2cn(CC(=O)NNC(=O)O[C@H]3C[C@H](C)[C@@H](O[C@@H]4[C@H](C)[C@@H](O[C@H]5O[C@@H](C)C[C@@H](N(C)C)[C@@H]5O)[C@@](C)(O)C[C@@H](C)CN(C)[C@H](C)[C@H]5OC(=O)O[C@]5(C)[C@H](CC)OC(=O)[C@@H]4C)C[C@@]3(C)OC)nn2)cc1`, the MIC was 2 µg/mL (≈ 1.84 µM) with Staphylococcus aureus [8]; 2 µg/mL (≈ 1.84 µM) in the experiment with Staphylococcus aureus [9]; not below 128 µg/mL in the experiment with Staphylococcus aureus [10]; 2 µg/mL (≈ 1.84 µM) with Staphylococcus aureus [11]; not below 128 µg/mL with Klebsiella pneumoniae [12]. Moreover, the Ratio with Staphylococcus aureus [13] and with Staphylococcus aureus [14] was more than 32 in each case.
